Laboratory results published in patent US7192974B2, “Hydroxymethyl substituted dihydroisoxazole derivatives useful as antibiotic agents” (AstraZeneca AB, priority 2003, dated 2007).
Counter-ions that a name gives are not always drawn.

Point of comparison: `COCCCOC(=O)OC[C@@H]1CC(c2ccc(-c3ccc(N4C[C@H](Cn5ccnn5)OC4=O)cc3F)cn2)=NO1` [Example 29, (5S)-3-(5-{2-fluoro-4-[(5R)-2-oxo-5-(1H-1,2,3-triazol-1-ylmethyl)-1,3-oxazolidin-3-yl]phenyl}pyridin-2-yl)-4,5-dihydroisoxazol-5-yl]methyl 3-methoxypropyl carbonate], melting point 142 °C. Against it:
- C[N+](C)(C)CCOC(=O)OC[C@@H]1CC(c2ccc(-c3ccc(N4C[C@H](Cn5ccnn5)OC4=O)cc3F)cn2)=NO1 (as salt: chloride) [Example 32, 2-[({[(5S)-3-(5-{2-fluoro-4-[(5R)-2-oxo-5-(1H-1,2,3-triazol-1-ylmethyl)-1,3-oxazolidin-3-yl]phenyl}pyridin-2-yl)-4,5-dihydrolsoxazol-5-yl]methoxy}carbonyl)oxy]-N,N,N-trimethylethanaminium chloride] — higher, 180 to 190 °C
- NCCC(=O)OC[C@@H]1CC(c2ccc(-c3ccc(N4C[C@H](Cn5ccnn5)OC4=O)cc3F)cn2)=NO1 (as salt: hydrochloride) [Example 8, [(5S)-3-(5-{2-Fluoro-4-[(5R)-2-oxo-5-(1H-1,2,3-triazol-1-ylmethyl)-1,3-oxazolidin-3-yl]phenyl}pyridin-2-yl)-4,5-dihydroisoxazol-5-yl]methyl β-alaninate] — lower, 68 to 75 °C
- CN(C)CC(=O)OCC1CC(c2ccc(-c3ccc(N4C[C@H](Cn5ccnn5)OC4=O)cc3F)cn2)=NO1 (stereo partly drawn) (as salt: hydrochloride) [Example 26, [3-(5-{2-fluoro-4-[(5R)-2-oxo-5-(1H-1,2,3-triazol-1-ylmethyl)-1,3-oxazolidin-3-yl]phenyl}pyridin-2-yl)-4,5-dihydroisoxazol-5-yl]methyl N,N-dimethylglycinate] — higher, 175 to 180 °C
- CNCCCCC(=O)OC[C@@H]1CC(c2ccc(-c3ccc(N4C[C@H](Cn5ccnn5)OC4=O)cc3F)cn2)=NO1 (as salt: hydrochloride) [Example 37, [(5S)-3-(5-{2-fluoro-4-[(5R)-2-oxo-5-(1H-1,2,3-triazol-1-ylmethyl)-1,3-oxazolidin-3-yl]phenyl}pyridin-2-yl)-4,5-dihydroisoxazol-5-yl]methyl 5-(methylamino)pentanoate] — higher, 184 °C
- CN(C)CC(=O)N(C)CCCCC(=O)OC[C@@H]1CC(c2ccc(-c3ccc(N4C[C@H](Cn5ccnn5)OC4=O)cc3F)cn2)=NO1 (as salt: hydrochloride) [Example 38, [(5S)-3-(5-{2-fluoro-4-[(5R)-2-oxo-5-(1H-1,2,3-triazol-1-ylmethyl)-1,3-oxazolidin-3-yl]phenyl}pyridin-2-yl)-4,5-dihydroisoxazol-5-yl]methyl 5-[(N,N-dimethylglycyl)(methyl)amino]pentanoate] — lower, 133 °C
- CCOC(=O)CCCCC(=O)OC[C@@H]1CC(c2ccc(-c3ccc(N4C[C@H](Cn5ccnn5)OC4=O)cc3F)cn2)=NO1 [Example 6, Ethyl [(5S)-3-(5-{2-fluoro-4-[(5R)-2-oxo-5-(1H-1,2,3-triazol-1-ylmethyl)-1,3oxazolidin-3-yl]phenyl}pyridin-2-yl)-4,5-dihydroisoxazol-5-yl]methyl hexanedioate] — lower, 88 °C
- CN(C)CCCC(=O)OC[C@@H]1CC(c2ccc(-c3ccc(N4C[C@H](Cn5ccnn5)OC4=O)cc3F)cn2)=NO1 [Example 9, [(5S)-3-(5-{2-Fluoro-4-[(5R)-2-oxo-5-(1H-1,2,3-triazol-1-ylmethyl)-1,3-oxazolidin-3-yl]phenyl}pyridin-2-yl)-4,5-dihydroisoxazol-5-yl]methyl 4-(dimethylamino)butanoate] — higher, 148 °C
- COC(=O)NCCCCC(=O)OC[C@@H]1CC(c2ccc(-c3ccc(N4C[C@H](Cn5ccnn5)OC4=O)cc3F)cn2)=NO1 [Example 10, [(5S)-3-(5-{2-Fluoro-4-[(5R)-2-oxo-5-(1H-1,2,3-triazol-1-ylmethyl)-1,3-oxazolidin-3-yl]phenyl}pyridin-2-yl)-4,5-dihydroisoxazol-5-yl]methyl 5-[(methoxycarbonyl)amino]pentanoate] — lower, 90 °C
- CCN(CC)CCC(=O)OC[C@@H]1CC(c2ccc(-c3ccc(N4C[C@H](Cn5ccnn5)OC4=O)cc3F)cn2)=NO1 [Example 11, [(5S)-3-(5-{2-Fluoro-4-[(5R)-2-oxo-5-(1H-1,2,3-triazol-1-ylmethyl)-1,3-oxazolidin-3-yl]phenyl}pyridin-2-yl)-4,5-dihydroisoxazol-5-yl]methyl N,N-diethyl-β-alaninate] — higher, 167 °C
- COCC(=O)OC[C@@H]1CC(c2ccc(-c3ccc(N4C[C@H](Cn5ccnn5)OC4=O)cc3F)cn2)=NO1 [Example 12, [(5S)-3-(5-{2-Fluoro-4-[(5R)-2-oxo-5-(1H-1,2,3-triazol-1-ylmethyl)-1,3-oxazolidin-3-yl]phenyl}pyridin-2-yl)-4,5-dihydroisoxazol-5-yl]methyl methoxyacetate] — higher, 170 °C
- COCCC(=O)OC[C@@H]1CC(c2ccc(-c3ccc(N4C[C@H](Cn5ccnn5)OC4=O)cc3F)cn2)=NO1 [Example 13, [(5S)-3-(5-{2-Fluoro-4-[(5R)-2-oxo-5-(1H-1,2,3-triazol-1-ylmethyl)-1,3-oxazolidin-3-yl]phenyl}pyridin-2-yl)-4,5-dihydroisoxazol-5-yl]methyl 3-methoxypropanoate] — higher, 149 °C
- COC(=O)OC[C@@H]1CC(c2ccc(-c3ccc(N4C[C@H](Cn5ccnn5)OC4=O)cc3F)cn2)=NO1 [Example 14, [(5S)-3-(5-{2-Fluoro-4-[(5R)-2-oxo-5-(1H-1,2,3-triazol-1-ylmethyl)-1,3-oxazolidin-3-yl]phenyl}pyridin-2-yl)-4,5-dihydroisoxazol-5-yl]methyl methyl carbonate] — higher, 205 °C
- COCCOC(=O)OC[C@@H]1CC(c2ccc(-c3ccc(N4C[C@H](Cn5ccnn5)OC4=O)cc3F)cn2)=NO1 [Example 15, [(5S)-3-(5-{2-Fluoro-4-[(5R)-2-oxo-5-(1H-1,2,3-triazol-1-ylmethyl)-1,3-oxazolidin-3-yl]phenyl}pyridin-2-yl)-4,5-dihydroisoxazol-5-yl]methyl 2-methoxyethyl carbonate] — lower, 112 °C
- COCCCC(=O)OC[C@@H]1CC(c2ccc(-c3ccc(N4C[C@H](Cn5ccnn5)OC4=O)cc3F)cn2)=NO1 [Example 17, [(5S)-3-(5-{2-Fluoro-4-[(5R)-2-oxo-5-(1H-1,2,3-triazol-1-ylmethyl)-1,3-oxazolidin-3-yl]phenyl}pyridin-2-yl)-4,5-dihydroisoxazol-5-yl]methyl 4-methoxybutanoate] — higher, 154 °C
- O=C(OC[C@@H]1CC(c2ccc(-c3ccc(N4C[C@H](Cn5ccnn5)OC4=O)cc3F)cn2)=NO1)c1ccc[n+]([O-])c1 [Example 25, [(5S)-3-(5-{2-fluoro-4-[(5R)-2-oxo-5-(1H-1,2,3-triazol-1-ylmethyl)-1,3-oxazolidin-3-yl]phenyl}pyridin-2-yl)-4,5-dihydroisoxazol-5-yl]methyl nicotinate 1-oxide] — higher, 255 °C
- CCOC(=O)NCCCCC(=O)OCC1CC(c2ccc(-c3ccc(N4C[C@H](Cn5ccnn5)OC4=O)cc3F)cn2)=NO1 (stereo partly drawn) [Example 27, [(5S)-3-(5-{2-fluoro-4-[(5R)-2-oxo-5-(1H-1,23-triazol-1-ylmethyl)-1,3-oxazolidin-3-yl]phenyl}pyridin-2-yl)-4,5-dihydroisoxazol-5-yl]methyl 5-[(ethoxycarbonyl)amino]pentanoate] — higher, 183 °C
